Reference: article PMC10064984, “Anti-cyclooxygenase, anti-glycation, and anti-skin aging effect of Dendrobium officinale flowers’ aqueous extract and its phytochemical validation in aging” (Frontiers in Immunology, 2023)
Values joined by “and” are separate entries in the source; they are usually repeats but may differ in a detail not shown here. Equal values may be shown once.

How the values were obtained:
[1] = ABTS·+ decolourisation capacity; type: biochemical; conditions: for ABTS scavenging rate: 0.5mM series, replicate wells; for IC50: mean ± SD, n = 3
Method in brief: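 IC50 values were derived graphically from dose-inhibition curves, with % inhibition calculated versus a buffer-only (0.2 M phosphate, pH 7.4) control. Each sample (200 μl) reacted for 10 min with 100 μl ABTS·+ reagent pre-set to A729 0.8 ± 0.05, then absorbance at 729 nm was measured in triplicate.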

[2] = FRAP total antioxidant capacity; type: biochemical; conditions: lower part of sheet (compound series);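 also: colourimetric FRAP kit assay read as absorbance in 96-well plates, values as mM FeSO4 via standard curve, EC1 being sample concentration matching 1.0 mmol/L FeSO4, Trolox positive control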
[3] = biological target: T1, COX-2 (Homo sapiens, UniProt P35354); assay: Anti-COX-2 assay (COX-2 Inhibitor Screening Kit); type: biochemical
T1 construct: purchased Beyotime S0168
T1 sequence (P35354 18-604): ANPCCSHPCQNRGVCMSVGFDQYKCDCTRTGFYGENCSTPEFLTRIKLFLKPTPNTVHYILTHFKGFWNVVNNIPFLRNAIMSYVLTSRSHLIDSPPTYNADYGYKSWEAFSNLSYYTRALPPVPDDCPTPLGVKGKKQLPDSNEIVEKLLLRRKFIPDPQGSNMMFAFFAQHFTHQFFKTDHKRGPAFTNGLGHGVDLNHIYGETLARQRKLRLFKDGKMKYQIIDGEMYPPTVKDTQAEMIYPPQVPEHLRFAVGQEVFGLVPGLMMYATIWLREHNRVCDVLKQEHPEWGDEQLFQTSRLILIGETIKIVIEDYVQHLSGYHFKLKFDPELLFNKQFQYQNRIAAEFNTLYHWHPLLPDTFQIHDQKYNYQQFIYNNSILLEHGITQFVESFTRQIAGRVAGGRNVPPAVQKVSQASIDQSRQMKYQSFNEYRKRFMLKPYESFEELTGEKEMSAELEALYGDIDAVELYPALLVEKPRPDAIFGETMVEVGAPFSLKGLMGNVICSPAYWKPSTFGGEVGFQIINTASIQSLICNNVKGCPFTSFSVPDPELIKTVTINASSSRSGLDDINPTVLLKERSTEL

[4] = Fluorescent AGEs formation in a BSA-fructose/glucose system; type: biochemical; conditions: for inhibition of fluorescent AGEs formation (BSA-抗糖化), single replicate: individual replicate; for inhibition of fluorescent AGEs formation (BSA-抗糖化), 平均 (mean): mean of 3 replicates
Method in brief: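 Fluorescent AGE inhibition was measured in triplicate, correcting sample and control fluorescence for BSA-free blanks. Glycation used BSA incubated with D-fructose and D-glucose, with samples dissolved in DMSO:water (1:4).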

[5] = Online UPLC-PDA-MS-ABTS·+ scavenging (postcolumn derivatisation); conditions: within DOF extract
Method: Online identification of antioxidant components of DOF extract was performed using a UPLC system (Milford, MA, USA) consisting of a Waters photodiode array detector and a Waters postcolumn derivatisation system supplying fresh ABTS solution (UPLC-PDA-QDa-ABTS). […] The detection wavelengths were set at 280 and 734 nm, and the injection volume of the sample was 10 μl.
To detect radical scavengers, the UPLC system was coupled with a Waters pump, which supplied freshly prepared ABTS·+ solution into a reaction coil (15 m, 0.25 mm ID) with a flow rate of 0.2 ml/min at 37°C. Negative peaks were recorded based on a decrease of absorbance at 729 nm after the reaction of individual compounds with the ABTS·+ radical. For preliminary identification of compounds, a Waters Acquity QDa mass detector in negative ionisation mode was connected in series to PDA with the following parameters: electrospray ion source; cone voltage, 15 V; atomiser, N2; and scanning range, 100–800 m/z.

[6] = DPPH· scavenging; type: biochemical; conditions: mean ± SD, n = 3;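 also: colourimetric DPPH radical scavenging in 96-well plates, absorbance read-out, percent inhibition relative to ethanol control absorbance, IC50 derived graphically from dose-inhibition curves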
[7] = mean ± SD, n = 3, read-out: BSA-glycation IC50

In the case of `O=c1c(O[C@@H]2O[C@H](CO)[C@@H](O)[C@H](O)[C@H]2O)c(-c2ccc(O)c(O)c2)oc2cc(O)cc(O)c12` [compound 25, Isoquercitrin], the ABTS scavenging rate ([1]; concentration 7.8125 (unit not given), listed as T15) is reported as 37.41% and 37.49% and 37.14%, the ABTS scavenging rate ([1]; concentration 15.625 (unit not given), listed as T15) is reported as 63.25% and 62.99% and 62.91% and the ABTS scavenging rate ([1]; concentration 31.25 (unit not given), listed as T15) is reported as 95.51% and 95.22% and 96.00%. For the same compound, the ABTS scavenging rate ([1]; concentration 62.5 (unit not given), listed as T15) was 99.23% and 99.50% and 99.53%, the ABTS scavenging rate ([1]; concentration 125 (unit not given), listed as T15) was 99.63% and 99.58% and 99.53% and the ABTS scavenging rate ([1]; concentration 250 (unit not given), listed as T15) was 99.04% and 98.96% and 98.89%. The ABTS scavenging rate ([1]; concentration 500 (unit not given), listed as T15) was 99.05% (2×) and 99.02%, the IC50 [1] was 10.67 ± 0.03 µM and the “FRAP EC1” value [2] was 520.2 ± 17.9 µM. For the same compound, the “COX-2 inhibition (in words)” value [3] was “great COX-2 inhibition”, the COX-2 inhibition ([3]; 3.125 μM, single replicates, listed as T15, 3.125 µM) was -5.79% and 0.13% and 6.24% and the COX-2 inhibition ([3]; 6.25 μM, single replicates, listed as T15, 6.25 µM) was 11.89% and 39.51% and 35.72%. The inhibition at 12.5 µM ([3]; 12.5 μM, single replicates) was 41.8%, the COX-2 inhibition ([3]; 12.5 μM, single replicates, listed as T15, 12.5 µM) was 53.29% and 49.38% and the inhibition at 25 µM ([3]; 25 μM, single replicates) was 67.1%. For the same compound, the COX-2 inhibition ([3]; 25 μM, single replicates, listed as T15, 25 µM) was 72.74% and 74.72%, the inhibition at 50 µM ([3]; 50 μM, single replicates) was 78.9% and the COX-2 inhibition ([3]; 50 μM, single replicates, listed as T15, 50 µM) was 78.06% and 79.70%. For the same compound, the inhibition at 100 µM ([3]; 100 μM, single replicates) was 77.2%, the COX-2 inhibition ([3]; 100 μM, single replicates, listed as T15, 100 µM) was 81.94% and 80.44% and the inhibition at 200 µM ([3]; 200 μM, single replicates) was 79.2%. For the same compound, the COX-2 inhibition ([3]; 200 μM, single replicates, listed as T15, 200 µM) was 82.29% and 79.96%, the IC50 [4, 7] was 213 ± 10.4 µM and the “online ABTS radical scavenging (size of negative peaks at 734 nm)” value [5] was “strongest ABTS radical scavengers”.

With Neoschaftoside [compound 21] the IC50 [6] was over 5000 µM, the ABTS scavenging rate ([1]; concentration 15.625 (unit not given), listed as T21) was 37.92% and 38.74% and 38.24% and the ABTS scavenging rate ([1]; concentration 31.25 (unit not given), listed as T21) was 60.76% and 61.20% and 60.99%. For the same compound, the ABTS scavenging rate ([1]; concentration 62.5 (unit not given), listed as T21) was 81.08% and 80.87% and 80.62%, the ABTS scavenging rate ([1]; concentration 125 (unit not given), listed as T21) was 92.61% and 92.60% and 92.36% and the ABTS scavenging rate ([1]; concentration 250 (unit not given), listed as T21) was 98.02% (2×) and 98.07%. For the same compound, the ABTS scavenging rate ([1]; concentration 500 (unit not given), listed as T21) was 99.70% and 99.73% and 99.67%, the IC50 [1] was 21.4 ± 0.24 µM and the “FRAP EC1” value [2] was over 5000 µM. The “COX-2 inhibition (in words)” value [3] was “no inhibitory effects”, the COX-2 inhibition ([3]; 31.25 μM, single replicates, listed as T21, 31.25 µM) was -6.16% and -4.80% and 6.61% and the COX-2 inhibition ([3]; 62.5 μM, single replicates, listed as T21, 62.5 µM) was 6.28% and 7.65% and 11.30%. For the same compound, the COX-2 inhibition ([3]; 125 μM, single replicates, listed as T21, 125 µM) was 1.19% and -2.74% and 1.96%, the COX-2 inhibition ([3]; 250 μM, single replicates, listed as T21, 250 µM) was 3.95% and 0.81% and 18.87% and the COX-2 inhibition ([3]; 500 μM, single replicates, listed as T21, 500 µM) was -4.13% and -1.62% and 4.93%. The COX-2 inhibition ([3]; 1000 μM, single replicates, listed as T21, 1000 µM) was -1.41% and 2.18% and 12.07%, the COX-2 inhibition ([3]; 2000 μM (2mM), single replicates, listed as T21) was 51.51% and 49.86% and 47.92% and the “inhibition of fluorescent AGEs formation (BSA-抗糖化), single replicate” value (“inhibition … single replicate” for short) ([4]; 15.625 µM) was 0.054% and 0.23% and 1.18%. For the same compound, the “inhibition of fluorescent AGEs formation (BSA-抗糖化), 平均 (mean)” value (“inhibition … (mean)” below) ([4]; 15.625 µM) was 0.49%, the “inhibition … single replicate” value ([4]; 31.25 µM) was 5.09% and 4.69% and 3.66% and the “inhibition … (mean)” value ([4]; 31.25 µM) was 4.48%. For the same compound, the “inhibition … single replicate” value ([4]; 62.5 µM) was 7.25% and 9.67% and 10.17%, the “inhibition … (mean)” value ([4]; 62.5 µM) was 9.03% and the “inhibition … single replicate” value ([4]; 125 µM) was 20.04% and 20.34% and 19.73%. For the same compound, the “inhibition … (mean)” value ([4]; 125 µM) was 20.04%, the “inhibition … single replicate” value ([4]; 250 µM) was 36.81% and 35.45% and 36.08% and the “inhibition … (mean)” value ([4]; 250 µM) was 36.11%. The “inhibition … single replicate” value ([4]; 500 µM) was 54.95% and 55.05% and 56.69%, the “inhibition … (mean)” value ([4]; 500 µM) was 55.56% and the “inhibition … single replicate” value ([4]; 1000 µM) was 71.70% (2×) and 72.55%. The “inhibition … (mean)” value ([4]; 1000 µM) was 71.98%, the “inhibition … single replicate” value ([4]; 2000 µM) was 83.42% and 82.90% and 83.96% and the “inhibition … (mean)” value ([4]; 2000 µM) was 83.43%. The “inhibition … single replicate” value ([4]; 4000 µM (series head 'T9 4000µM', 2-fold dilutions)) was 91.13% and 89.60% and 90.19%, the “inhibition … (mean)” value ([4]; 4000 µM) was 90.31% and the IC50 ([4]; BSA anti-glycation, IC50 of each of 3 replicates, read-out: IC50, single replicate curve) was 432 µM and 437 µM and 421 µM. The IC50 [4, 7] was 430 ± 8 µM.

For Vicenin-3 [compound 19], the IC50 [6] was over 5000 µM, the IC50 [1] was 74.8 ± 0.92 µM and the “FRAP EC1” value [2] was over 5000 µM. For the same compound, the “COX-2 inhibition (in words)” value [3] was “no inhibitory effects”, the COX-2 inhibition ([3]; 31.25 μM, single replicates, listed as T8, 31.25 µM) was -27.09% and -25.76% and -19.42% and the COX-2 inhibition ([3]; 62.5 μM, single replicates, listed as T8, 62.5 µM) was -19.03% and -34.16% and -24.78%. The COX-2 inhibition ([3]; 125 μM, single replicates, listed as T8, 125 µM) was -26.82% and -40.95% and -33.02%, the COX-2 inhibition ([3]; 250 μM, single replicates, listed as T8, 250 µM) was -32.94% and -46.72% and -42.57% and the COX-2 inhibition ([3]; 500 μM, single replicates, listed as T8, 500 µM) was -35.30% and -54.98% and -48.28%. The COX-2 inhibition ([3]; 1000 μM, single replicates, listed as T8, 1000 µM) was -23.28% and -61.50% and -50.44%, the COX-2 inhibition ([3]; 2000 μM (2mM), single replicates, listed as T8) was -50.77% and -55.05% and -54.78% and the IC50 [4, 7] was 243 ± 12 µM.
